The text below walks through data of US20200163947A1 (Nortic Holdings Inc., priority 2018, published 2020).

For data set [1] the following is noted: cited from earlier work.
For data set [2] the following is noted: 25° C.; cited from earlier work.
The nature of data set [3]: Single dose parallel plasma and CSF pharmacokinetics and relative bioavailability study in rats. The conditions noted are these: both sexes, Wistar, rat, plasma. The class given is in vivo. As for the experimental part: The pharmacokinetics study was performed in 6 healthy rats (3 males and 3 females). […] Blood samples were collected at 15 minutes, 30 minutes, and at 1, 2, 4, 6, 8, 12 and 24 hours post-dose. CSF samples were collected at 1, 2, 4, and 24 hours post-dose. All samples were analyzed using a validated analytical LC-MS method.

The structures appear in SMILES notation. Converted amounts (≈) assume the structure as drawn. Where two headings read alike, the source gives them in different places.

Broadly, the bioavailability is the share of a dose that reaches the circulation, judged against a reference dose that is usually intravenous. On to `COCCOC(=O)C1=C(C)NC(C)=C(C(=O)OC(C)C)C1c1cccc([N+](=O)[O-])c1` (stereo not drawn) [nimodipine, isopropyl 2-methoxyethyl 1,4-dihydro-2,6-dimethyl-4-(m-nitrophenyl)-3,5-pyridinedicarboxylate], for which, in data set [1] (man), the “half-life equivalent to earlier elimination rates” value is 1 to 2 h. Also, the “concentration in the cerebrospinal fluid” value in data set [1] (nimodipine-treated subarachnoid hemorrhage (SAH) patients) was not above 12.5 ng/mL. The “Cmax in patients with hepatic cirrhosis versus normal” value in data set [1] (oral administration) is listed as “approximately double”. Further, the solubility in water in data set [2] is 2.5 µg/mL (≈ 5.97 µM). Further, the bioavailability in data set [3] (0.73 mg, continuous intravenous infusion, read-out: absolute bioavailability) worked out at 100%; in data set [3] (rats, 5.5 mg oral solution by oral gavage, Mean, read-out: Absolute Bioavailability (F %)) it was 22%.
